Data from patent publication US20250171463A1 (BIOGEN MA INC., priority 2022, published 2025).

Target: T1, EBP (Homo sapiens, UniProt Q15125)
T1 construct: HEK293T cells were utilized as the source of EBP enzyme; endogenous in cells; host or cells: HEK293T
Assay: EBP Functional Assay (EBP immunoaffinity LC-MS assay)
Assay type: biochemical
Conditions: EBP enzyme from HEK293T cells; 30 min with inhibitor, then zymosterol-d5, 37° C., 4 h; percent conversion to dehydrolathosterol-d5 by LC-APCI MRM MS
Procedure, shortened: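 HEK293T cells served as EBP source; enzyme preincubated 30 min with inhibitor dilutions, then zymosterol-d5 substrate added and incubated 4 h at 37° C. Sterols extracted and quantified by LC-APCI MRM MS; percent conversion to […] fit to 4-parameter logistic for IC50. Tasin-1 reference inhibitor.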

T1 sequence (Q15125 whole entry): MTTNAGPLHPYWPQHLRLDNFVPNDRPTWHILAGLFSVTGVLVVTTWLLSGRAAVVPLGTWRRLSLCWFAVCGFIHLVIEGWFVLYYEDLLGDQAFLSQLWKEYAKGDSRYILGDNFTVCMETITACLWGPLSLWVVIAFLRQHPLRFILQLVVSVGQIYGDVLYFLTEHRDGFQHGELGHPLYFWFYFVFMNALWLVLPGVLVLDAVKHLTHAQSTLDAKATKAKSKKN

**Q.** O=S(=O)(c1ccc(C(F)(F)F)nc1C(F)(F)F)N1CC2(CN(C3CCOCC3)C2)C1 [Example 109, 2-((2,6-bis(trifluoromethyl)pyridin-3-yl)sulfonyl)-6-(tetrahydro-2H-pyran-4-yl)-2,6-diazaspiro[3.3]heptane] was tested. Which IC50 did it give?
**A.** 250 to 4000 nM

**Q.** Which IC50 does the source give for Cn1nc(C(C)(F)F)cc1S(=O)(=O)N1CC2(CN(CC3CCOCC3)C2)C1 [Example 210, 2-((3-(1,1-difluoroethyl)-1-methyl-1H-pyrazol-5-yl)sulfonyl)-6-((tetrahydro-2H-pyran-4-yl)methyl)-2,6-diazaspiro[3.3]heptane] here?
**A.** 100 to 250 nM

**Q.** How did the IC50 turn out when Cn1nc(C(F)(F)F)cc1S(=O)(=O)N1CCC2(CN(C3CCOCC3)C2)C1 [Example 60, 6-((1-methyl-3-(Trifluoromethyl)-1H-pyrazol-5-yl)sulfonyl)-2-(tetrahydro-2H-pyran-4-yl)-2,6-diazaspiro[3.4]octane] was run?
**A.** < 100 nM

**Q.** Which IC50 does the source give for COC1CCC(N2CC3(C2)CN(S(=O)(=O)c2ccc(C(F)F)nc2C2CC2)C3)CC1 (single isomer, unassigned) [Example 118, 2-((2-cyclopropyl-6-(difluoromethyl)pyridin-3-yl)sulfonyl)-6-(4-methoxycyclohexyl)-2,6-diazaspiro[3.3]heptane] here?
**A.** 100 to 250 nM

**Q.** With O=S(=O)(c1ccc(OC(F)F)cc1)N1CCO[C@@]2(CCN(C3CCOCC3)C2)C1 (single isomer, unassigned) [Example 4] as the molecule, how does the IC50 read?
**A.** < 100 nM

**Q.** For Cc1nc(C(C)(F)F)ccc1S(=O)(=O)N1CC2(CN(C3CCCOC3)C2)C1 (stereo not drawn) [Example 80], which IC50 is on record?
**A.** 250 to 4000 nM

**Q.** Which IC50 does the source give for Cc1nc(C(F)(F)F)ccc1S(=O)(=O)N1CC2(CN(CC3(C)CCCO3)C2)C1 (stereo not drawn) [Example 134] here?
**A.** 100 to 250 nM

**Q.** How did the IC50 turn out when Cc1nc(C(F)(F)F)ccc1S(=O)(=O)N1CCC2(CC1)CN(C1CCOCC1)C2 [Example 33, 7-((2-Methyl-6-(trifluoromethyl)pyridin-3-yl)sulfonyl)-2-(tetrahydro-2H-pyran-4-yl)-2,7-diazaspiro[3.5]nonane] was run?
**A.** < 100 nM

**Q.** Which IC50 does the source give for Cc1nc(C(F)(F)F)ccc1S(=O)(=O)N1CC2(CN(C3CCOCC3(C)C)C2)C1 (stereo not drawn) [Example 142] here?
**A.** < 100 nM

**Q.** With Cc1nc(C(C)(F)F)ccc1S(=O)(=O)N1CC2(CN(C(C)C3CCOC3)C2)C1 (stereo not drawn) [Example 86] as the molecule, how does the IC50 read?
**A.** < 100 nM

**Q.** Which IC50 does the source give for Cc1nc(C(F)(F)F)ccc1S(=O)(=O)N1CC2(CN(C(C)C3(C)CCOCC3)C2)C1 (stereo not drawn) [Example 131] here?
**A.** 100 to 250 nM

**Q.** Cn1nc(C2CC2)cc1S(=O)(=O)N1CC2(CN(CC3CCOCC3)C2)C1 [Example 219, 2-((3-cyclopropyl-1-methyl-1H-pyrazol-5-yl)sulfonyl)-6-((tetrahydro-2H-pyran-4-yl)methyl)-2,6-diazaspiro[3.3]heptane] was tested. Which IC50 did it give?
**A.** 100 to 250 nM

**Q.** For COCCCCCN1CC2(C1)CN(S(=O)(=O)c1ccc(C(F)(F)F)nc1C)C2 [Example 179], which IC50 is on record?
**A.** 100 to 250 nM

**Q.** For O=S(=O)(c1cnc(C2CC2)s1)N1CCOC2(CCN(C3CCOCC3)C2)C1 (stereo not drawn) [Example 23, 9-((2-Cyclopropylthiazol-5-yl)sulfonyl)-2-(tetrahydro-2H-pyran-4-yl)-6-oxa-2,9-diazaspiro[4.5]decane], which IC50 is on record?
**A.** 100 to 250 nM

**Q.** How did the IC50 turn out when O=S(=O)(c1cccnc1C(F)(F)F)N1CC2(CN(C3CCOCC3)C2)C1 [Example 162, 2-(tetrahydro-2H-pyran-4-yl)-6-((2-(trifluoromethyl)pyridin-3-yl)sulfonyl)-2,6-diazaspiro[3.3]heptane] was run?
**A.** 250 to 4000 nM

**Q.** With Cc1nc(C(C)(F)F)ccc1S(=O)(=O)N1CC2(CN(CC3COC3)C2)C1 [Example 87] as the molecule, how does the IC50 read?
**A.** < 100 nM

**Q.** For “4-((6-((2-methyl-6-(trifluoromethyl)pyridin-3-yl)sulfonyl)-2,6-diazaspiro[3.3]heptan-2-yl)methyl)tetrahydro-2H-pyran-4-ol [Example 75]”, which IC50 is on record?
**A.** 250 to 4000 nM

**Q.** How did the IC50 turn out when O=S(=O)(c1ccc(C(F)(F)F)nc1C1CC1)N1CC2(CN(C3CCOCC3)C2)C1 [Example 193, 2-((2-cyclopropyl-6-(trifluoromethyl)pyridin-3-yl)sulfonyl)-6-(tetrahydro-2H-pyran-4-yl)-2,6-diazaspiro[3.3]heptane] was run?
**A.** < 100 nM

**Q.** How did the IC50 turn out when O=S(=O)(c1ccc(OC(F)F)cc1F)N1CC2(CN(CC3CCOCC3)C2)C1 [Example 226, 2-((4-(difluoromethoxy)-2-fluorophenyl)sulfonyl)-6-((tetrahydro-2H-pyran-4-yl)methyl)-2,6-diazaspiro[3.3]heptane] was run?
**A.** 250 to 4000 nM

**Q.** How did the IC50 turn out when CC1(O)CCC(N2CC3(C2)CN(S(=O)(=O)c2cnc(C(F)(F)F)cc2C2CC2)C3)CC1 (single isomer, unassigned) [Example 123, 4-(6-((4-cyclopropyl-6-(trifluoromethyl)pyridin-3-yl)sulfonyl)-2,6-diazaspiro[3.3]heptan-2-yl)-1-methylcyclohexan-1-ol] was run?
**A.** 100 to 250 nM

**Q.** How did the IC50 turn out when O=S(=O)(c1ccc(OC(F)F)cc1)N1CCC2(CCN(C3CCOCC3)C2)CC1 [Example 39] was run?
**A.** < 100 nM

**Q.** How did the IC50 turn out when CCN1CC2(C1)CN(S(=O)(=O)c1ccc(C(F)(F)F)nc1C)C2 [Example 170] was run?
**A.** 250 to 4000 nM

**Q.** For O=S(=O)(c1ccc(C(F)(F)F)nc1C(F)(F)F)N1CC2(CN(C3CC4(COC4)C3)C2)C1 [Example 110], which IC50 is on record?
**A.** 250 to 4000 nM

**Q.** With Cc1nc(C(F)F)ccc1S(=O)(=O)N1CC2(CN(C3CCOCC3)C2)C1 [Example 90, 2-((6-(difluoromethyl)-2-methylpyridin-3-yl)sulfonyl)-6-(tetrahydro-2H-pyran-4-yl)-2,6-diazaspiro[3.3]heptane] as the molecule, how does the IC50 read?
**A.** 100 to 250 nM

**Q.** With Cn1nc(C(C)(F)F)cc1S(=O)(=O)N1CC2(CN(C3CCOCC3)C2)C1 [Example 166, 2-((3-(1,1-difluoroethyl)-1-methyl-1H-pyrazol-5-yl)sulfonyl)-6-(tetrahydro-2H-pyran-4-yl)-2,6-diazaspiro[3.3]heptane] as the molecule, how does the IC50 read?
**A.** 100 to 250 nM

**Q.** Which IC50 does the source give for Cc1ccc(S(=O)(=O)N2CC3(CN(CC4CCOCC4)C3)C2)c(C(F)(F)F)n1 [Example 106, 2-((6-methyl-2-(trifluoromethyl)pyridin-3-yl)sulfonyl)-6-((tetrahydro-2H-pyran-4-yl)methyl)-2,6-diazaspiro[3.3]heptane] here?
**A.** 100 to 250 nM

**Q.** How did the IC50 turn out when Cc1nc(C(F)(F)F)ccc1S(=O)(=O)N1CC2(CN(CC34CCOC(C)(C3)C4)C2)C1 [Example 74, 2-((1-methyl-2-oxabicyclo[3.1.1]heptan-5-yl)methyl)-6-((2-methyl-6-(trifluoromethyl)pyridin-3-yl)sulfonyl)-2,6-diazaspiro[3.3]heptane] was run?
**A.** < 100 nM

**Q.** Which IC50 does the source give for CC1(CN2CCC3(CC2)CN(S(=O)(=O)c2cc(F)cc(F)c2)CCO3)COC1 [Example 29, 4-((3,5-Difluorophenyl)sulfonyl)-9-((3-methyloxetan-3-yl)methyl)-1-oxa-4,9-diazaspiro[5.5]undecane] here?
**A.** 100 to 250 nM

**Q.** CCc1cc(C(F)(F)F)ncc1S(=O)(=O)N1CC2(CN(C3CCC(C)(O)CC3)C2)C1 (single isomer, unassigned) [Example 128, 4-(6-((4-ethyl-6-(trifluoromethyl)pyridin-3-yl)sulfonyl)-2,6-diazaspiro[3.3]heptan-2-yl)-1-methylcyclohexan-1-ol] was tested. Which IC50 did it give?
**A.** < 100 nM

**Q.** For COC(C)(C)CN1CCC2(CC1)CN(S(=O)(=O)c1ccc(OC(F)F)cc1)CCO2 [Example 11, 4-((4-(Difluoromethoxy)phenyl)sulfonyl)-9-(2-methoxy-2-methylpropyl)-1-oxa-4,9-diazaspiro[5.5]undecane], which IC50 is on record?
**A.** 100 to 250 nM
